Experimental data reported in patent US20010041706A1, “Blockade of taxane metabolism” (priority 2000, published 2001).

How the values were obtained:
[1] = target: T1, CYP2C8 (Homo sapiens, UniProt P10632); details: previously reported; cited from earlier work
T1 sequence (P10632 1-490): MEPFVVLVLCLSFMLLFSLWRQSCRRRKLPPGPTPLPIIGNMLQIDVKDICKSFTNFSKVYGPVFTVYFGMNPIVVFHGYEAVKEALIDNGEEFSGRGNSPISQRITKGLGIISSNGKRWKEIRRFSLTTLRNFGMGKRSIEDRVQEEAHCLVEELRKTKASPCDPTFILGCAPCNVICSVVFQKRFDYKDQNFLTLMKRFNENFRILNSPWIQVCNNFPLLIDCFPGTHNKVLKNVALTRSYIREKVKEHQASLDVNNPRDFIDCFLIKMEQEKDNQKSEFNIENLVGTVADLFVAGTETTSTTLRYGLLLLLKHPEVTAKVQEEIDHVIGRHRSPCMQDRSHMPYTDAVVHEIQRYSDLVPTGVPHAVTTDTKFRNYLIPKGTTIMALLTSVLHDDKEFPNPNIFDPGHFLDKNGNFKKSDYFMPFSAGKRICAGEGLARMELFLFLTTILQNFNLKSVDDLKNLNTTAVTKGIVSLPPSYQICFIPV

[2] = target: T2, cytochrome P450 2C8 (CYP2C8) (Homo sapiens, UniProt P10632); details: hepatocytes
T2 sequence (P10632 1-490): T1 sequence (P10632 1-490)

[3] = system: paclitaxel metabolism; details: Jamis-Dow et al., Am J. Clin. Oncol. 1997; cited from earlier work
[4] = Quercetin levels in mouse liver after oral dose (HPLC); format: in vivo; details: mice receiving oral quercetin 1000 mg/kg
Protocol: Quercetin twelve hours prior to paclitaxel had no effect on system exposure. […] The peak levels of quercetin measured in the livers of mice receiving oral supplementation were approximately 15 μM, and occurred between 8 and 12 hours after the dose.

[5] = system: paclitaxel metabolism; experiment: Paclitaxel metabolism in primary human hepatocytes, overall; format: cell-based; details: second experiment (FIG. 4), highest concentration tested (50 μM), 24 hours
[6] = target: cytochrome P450 3A4 (CYP3A4) (Homo sapiens, UniProt P08684); details: hepatocytes
Sequence of cytochrome P450 3A4 (CYP3A4) (P08684 whole entry): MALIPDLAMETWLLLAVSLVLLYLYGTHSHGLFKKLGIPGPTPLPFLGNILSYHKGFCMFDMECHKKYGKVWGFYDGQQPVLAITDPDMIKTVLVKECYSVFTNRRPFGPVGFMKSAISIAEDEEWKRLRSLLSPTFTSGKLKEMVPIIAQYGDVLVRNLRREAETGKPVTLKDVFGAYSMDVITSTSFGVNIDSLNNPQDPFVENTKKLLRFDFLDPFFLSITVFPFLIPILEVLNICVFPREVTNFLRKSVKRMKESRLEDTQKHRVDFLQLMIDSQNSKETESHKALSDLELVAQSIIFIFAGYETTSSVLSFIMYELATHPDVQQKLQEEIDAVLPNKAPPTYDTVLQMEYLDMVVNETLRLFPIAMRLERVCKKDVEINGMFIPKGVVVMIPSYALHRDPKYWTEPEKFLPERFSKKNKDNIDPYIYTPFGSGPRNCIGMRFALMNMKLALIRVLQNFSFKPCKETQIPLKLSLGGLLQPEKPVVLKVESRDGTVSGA

Compound: O=C1C[C@@H](c2ccc(O)cc2)Oc2cc(O)cc(O)c21 [naringenin]
- inhibition of the metabolism of paclitaxel by CYP2C8 [1]: selectively inhibit

Compound: O=c1c(O)c(-c2ccc(O)cc2)oc2cc(O)cc(O)c12 [kaempherol]
- inhibition of the metabolism of paclitaxel by CYP2C8 [1]: selectively inhibit

Compound: CC(=O)N1CCN(c2ccc(OCC3COC(Cn4ccnc4)(c4ccc(Cl)cc4Cl)O3)cc2)CC1 (stereo not drawn) [ketoconazole]
- inhibition of paclitaxel metabolism by CYP2C8 [2]: concentration-dependent manner
- inhibition of paclitaxel metabolism in humans [3]: unable to inhibit paclitaxel metabolism

Compound: O=c1c(O)c(-c2ccc(O)c(O)c2)oc2cc(O)cc(O)c12 [quercetin]
- inhibition of the metabolism of paclitaxel by CYP2C8 [1]: selectively inhibit
- peak levels of quercetin measured in the livers [4]: approximately 15 μM
- effect on paclitaxel metabolism [5]: modest effect
- inhibition of paclitaxel metabolism by CYP2C8 [2]: concentration-dependent manner
- inhibition of paclitaxel metabolism by CYP3A4 [6]: concentration-dependent manner
